Experimental data taken from ChEMBL document CHEMBL1201862, “PubChem BioAssay data set” (2004).
The source made the active and inactive calls. Rule as the data show it, for most assays here: actives have a measured EC50 and inactives only a lower limit.

Tests used:
Genome polyprotein = Genome polyprotein (dengue virus type 2, UniProt P29990); assay: Dengue-2 NS5 methyltransferase inhibitors, primary screen, biochemical, confirmation dose response (AID 588689); format: functional
[1] = target: T1, Heat shock factor protein 1 (Mus musculus, UniProt P38532); assay: inhibition of MG132-induced HSE-luciferase signal, confirmation, cell-based, NIH3T3, luminescence, dose retest (AID 2382); format: functional;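 also: NIH3T3 fibroblasts with HSF1-driven luciferase reporter stressed by proteasome inhibitor MG132; luminescence from HSF1-driven luciferase expression after 8 hours of MG132 stress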
T1 sequence (P38532 whole entry): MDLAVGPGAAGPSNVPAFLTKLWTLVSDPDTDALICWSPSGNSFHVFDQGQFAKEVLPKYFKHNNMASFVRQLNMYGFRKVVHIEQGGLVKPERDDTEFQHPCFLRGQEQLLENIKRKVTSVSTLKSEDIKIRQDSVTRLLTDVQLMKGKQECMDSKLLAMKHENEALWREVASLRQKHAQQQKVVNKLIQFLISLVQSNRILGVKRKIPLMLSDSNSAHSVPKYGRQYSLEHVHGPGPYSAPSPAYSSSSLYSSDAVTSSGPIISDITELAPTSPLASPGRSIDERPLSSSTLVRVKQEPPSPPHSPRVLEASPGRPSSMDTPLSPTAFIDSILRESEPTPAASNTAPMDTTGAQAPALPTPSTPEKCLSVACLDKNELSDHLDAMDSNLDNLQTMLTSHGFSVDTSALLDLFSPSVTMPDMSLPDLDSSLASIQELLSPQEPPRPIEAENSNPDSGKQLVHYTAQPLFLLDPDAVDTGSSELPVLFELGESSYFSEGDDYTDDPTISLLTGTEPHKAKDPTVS

Large T antigen = Large T antigen (Simian virus 40, UniProt P03070); format: functional, Betapolyomavirus macacae;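 also: Confirmatory-stage PubChem screen for compounds that inhibit SV40 T antigen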
[2] = target: FAD-linked sulfhydryl oxidase ALR (Homo sapiens, UniProt P55789); assay: inhibitors of human ALR sulfhydryl oxidase, dose response, biochemical, H2O2 detection, luminescence, cherry-pick (AID 493248)
[3] = microbe, parasite or virus in culture; format: functional; settings: Mycobacterium tuberculosis
[4] = cytotoxicity toward DRD oncogenic fibroblasts, dose response, cell-based, non-viral oncogenic, luminescence (AID 1934); format: functional; settings: Homo sapiens
BJ [5] = assay: cells; format: functional, cell-based; settings: Homo sapiens
BJ [6] = assay: cytotoxicity toward BJ-TERT-LT-ST fibroblasts, dose response, cell-based, RAS-independent, luminescence (AID 1935); format: functional; settings: Homo sapiens;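 also: BJ fibroblasts immortalized with TERT plus LT and ST oncogenes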
BJ [7] = assay: cytotoxicity toward BJ-TERT fibroblasts, dose response, cell-based, RAS-independent, luminescence (AID 1933); format: functional; settings: Homo sapiens
[8] = target: Luciferin 4-monooxygenase (Photinus pyralis, UniProt P08659); assay: firefly luciferase enzyme inhibitors, dose response, biochemical, luminescence (AID 1891)
Cytochrome P450 2C9 = Cytochrome P450 2C9 (Homo sapiens, UniProt P11712)
[9] = Luminescence Cell-Based Dose Confirmation HTS to Identify Inhibitors of Platelet Dense Granule Release. [Related pubchem assays: 1663 (Primary HTS), 1678 (Summary of Project)]; format: functional
[10] = target: T2, Calpain-2 catalytic subunit (Sus scrofa, UniProt P43367); assay: pig calpain II inhibitor potency, dose response, biochemical, fluorogenic peptide substrate (AID 1420); format: functional
T2 sequence (P43367 whole entry): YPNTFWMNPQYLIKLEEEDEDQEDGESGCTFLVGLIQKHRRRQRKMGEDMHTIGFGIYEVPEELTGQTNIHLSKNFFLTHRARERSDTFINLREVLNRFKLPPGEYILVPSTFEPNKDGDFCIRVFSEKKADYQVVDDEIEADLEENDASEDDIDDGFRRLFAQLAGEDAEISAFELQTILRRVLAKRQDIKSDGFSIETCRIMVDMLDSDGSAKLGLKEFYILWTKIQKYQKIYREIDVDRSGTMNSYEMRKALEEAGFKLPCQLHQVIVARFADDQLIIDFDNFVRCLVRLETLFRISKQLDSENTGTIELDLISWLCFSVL

[11] = inhibitors of intracellular T. cruzi replication, confirmation, NIH3T3 host cells, beta-gal luminescence (AID 2044); format: functional, cell-based;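 also: intracellular parasites grown in NIH/3T3 mouse fibroblasts as host cells; luminescent beta-galactosidase reporter signal from transgenic T. cruzi replicating inside host cells; inhibitors lower the luminescence signal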
[12] = cytotoxicity toward NIH3T3 fibroblasts, dose response, counter-screen, cell-based, ATP luminescence, mouse fibroblasts (AID 2010); format: functional;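 also: cells exposed to compound for about 90 hours before reading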
[13] = Luminescence Cell-Based Dose Response HTS to Identify Inhibitors of 5'UTR Stem-Loop Driven Prion Protein mRNA Translation in H4 Neuroglioblastoma Cells. [Related pubchem assays: 1827 (Project Summary), 1813 (Primary HTS)]; format: functional
[14] = inhibitors of SNCA 5'UTR-driven reporter translation, confirmation, H4 neuroglioma cells, luminescence (AID 1988); format: functional, cell-based
[15] = inhibitors of firefly luciferase expression or activity, dose response, H4 neuroglioma cells, luminescence (AID 1990); format: functional, cell-based

FAD-linked sulfhydryl oxidase ALR, sequence (P55789 whole entry): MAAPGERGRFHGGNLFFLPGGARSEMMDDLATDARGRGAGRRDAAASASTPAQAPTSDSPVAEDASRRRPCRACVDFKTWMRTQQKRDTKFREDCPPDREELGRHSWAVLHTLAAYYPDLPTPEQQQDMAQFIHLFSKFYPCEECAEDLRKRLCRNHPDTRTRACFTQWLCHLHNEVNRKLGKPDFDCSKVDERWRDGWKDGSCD
Genome polyprotein, sequence (P29990 2492-3391 limits assumed): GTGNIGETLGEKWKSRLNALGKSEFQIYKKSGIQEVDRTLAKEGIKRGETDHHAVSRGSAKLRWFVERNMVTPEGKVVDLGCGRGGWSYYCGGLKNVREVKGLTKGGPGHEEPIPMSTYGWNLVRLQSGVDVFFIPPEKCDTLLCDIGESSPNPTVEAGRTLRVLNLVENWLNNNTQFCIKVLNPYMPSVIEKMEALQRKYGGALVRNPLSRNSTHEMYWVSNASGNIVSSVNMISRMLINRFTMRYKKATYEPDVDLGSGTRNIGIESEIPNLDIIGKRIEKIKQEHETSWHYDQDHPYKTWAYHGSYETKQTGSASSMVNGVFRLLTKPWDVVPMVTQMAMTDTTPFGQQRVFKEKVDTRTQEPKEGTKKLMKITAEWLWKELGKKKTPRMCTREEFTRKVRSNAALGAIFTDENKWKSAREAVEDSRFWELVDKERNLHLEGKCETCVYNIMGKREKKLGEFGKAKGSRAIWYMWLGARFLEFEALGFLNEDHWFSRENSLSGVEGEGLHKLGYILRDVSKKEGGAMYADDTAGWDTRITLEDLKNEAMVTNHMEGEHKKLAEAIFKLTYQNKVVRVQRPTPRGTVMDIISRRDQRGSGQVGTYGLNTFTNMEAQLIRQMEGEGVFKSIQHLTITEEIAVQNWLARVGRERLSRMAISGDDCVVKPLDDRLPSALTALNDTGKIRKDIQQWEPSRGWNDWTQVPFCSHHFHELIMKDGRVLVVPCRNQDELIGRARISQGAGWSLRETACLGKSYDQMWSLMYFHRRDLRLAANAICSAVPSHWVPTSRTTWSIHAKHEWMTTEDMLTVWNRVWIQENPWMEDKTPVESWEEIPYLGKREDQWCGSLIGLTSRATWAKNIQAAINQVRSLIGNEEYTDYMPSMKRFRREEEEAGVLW
Large T antigen, sequence (P03070 whole entry): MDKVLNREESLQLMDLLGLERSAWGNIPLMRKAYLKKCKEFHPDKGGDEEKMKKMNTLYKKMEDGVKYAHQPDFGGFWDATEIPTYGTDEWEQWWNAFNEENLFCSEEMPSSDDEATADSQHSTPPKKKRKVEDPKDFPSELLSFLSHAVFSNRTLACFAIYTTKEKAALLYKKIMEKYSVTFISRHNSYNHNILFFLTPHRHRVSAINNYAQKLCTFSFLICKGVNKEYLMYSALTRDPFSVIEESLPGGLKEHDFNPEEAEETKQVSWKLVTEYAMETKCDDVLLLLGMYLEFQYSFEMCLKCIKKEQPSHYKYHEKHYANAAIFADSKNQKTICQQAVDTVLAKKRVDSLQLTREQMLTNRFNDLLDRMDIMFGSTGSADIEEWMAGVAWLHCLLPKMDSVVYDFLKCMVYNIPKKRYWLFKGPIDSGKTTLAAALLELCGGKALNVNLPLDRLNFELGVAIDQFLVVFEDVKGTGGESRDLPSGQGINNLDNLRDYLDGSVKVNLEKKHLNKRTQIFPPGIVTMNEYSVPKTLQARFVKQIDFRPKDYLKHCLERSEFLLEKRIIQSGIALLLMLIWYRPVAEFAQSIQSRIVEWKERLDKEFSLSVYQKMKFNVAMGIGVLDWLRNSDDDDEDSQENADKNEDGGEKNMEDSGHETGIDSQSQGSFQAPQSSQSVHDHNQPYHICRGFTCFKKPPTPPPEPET
Cytochrome P450 2C9, sequence (P11712 whole entry): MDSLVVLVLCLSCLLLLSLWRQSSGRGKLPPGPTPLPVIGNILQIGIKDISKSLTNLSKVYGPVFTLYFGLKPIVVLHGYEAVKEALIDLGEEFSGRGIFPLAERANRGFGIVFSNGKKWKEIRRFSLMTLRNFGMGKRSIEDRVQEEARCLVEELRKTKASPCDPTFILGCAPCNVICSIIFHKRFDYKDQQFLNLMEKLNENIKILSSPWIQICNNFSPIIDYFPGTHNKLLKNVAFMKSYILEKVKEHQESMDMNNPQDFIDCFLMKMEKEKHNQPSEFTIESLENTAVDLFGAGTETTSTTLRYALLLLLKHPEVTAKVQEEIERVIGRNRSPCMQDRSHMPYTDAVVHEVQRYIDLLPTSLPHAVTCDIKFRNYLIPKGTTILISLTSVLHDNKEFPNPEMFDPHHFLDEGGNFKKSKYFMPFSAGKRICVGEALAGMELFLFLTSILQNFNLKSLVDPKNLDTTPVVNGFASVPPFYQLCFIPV
Luciferin 4-monooxygenase, sequence (P08659 whole entry): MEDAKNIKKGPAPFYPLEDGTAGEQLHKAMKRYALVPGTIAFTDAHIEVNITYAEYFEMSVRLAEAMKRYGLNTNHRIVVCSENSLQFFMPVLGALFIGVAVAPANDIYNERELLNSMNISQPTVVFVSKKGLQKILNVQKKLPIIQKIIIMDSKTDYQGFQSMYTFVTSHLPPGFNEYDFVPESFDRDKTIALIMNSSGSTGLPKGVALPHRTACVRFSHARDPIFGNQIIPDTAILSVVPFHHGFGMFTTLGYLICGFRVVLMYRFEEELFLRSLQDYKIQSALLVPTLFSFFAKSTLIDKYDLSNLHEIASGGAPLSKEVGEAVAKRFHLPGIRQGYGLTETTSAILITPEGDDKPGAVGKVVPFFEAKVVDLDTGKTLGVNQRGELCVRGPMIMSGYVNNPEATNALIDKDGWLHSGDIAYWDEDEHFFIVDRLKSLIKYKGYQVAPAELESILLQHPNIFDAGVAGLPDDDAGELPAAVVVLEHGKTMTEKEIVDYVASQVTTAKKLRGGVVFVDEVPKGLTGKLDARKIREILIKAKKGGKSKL

What does the source list for `Nc1c(C(=O)O)sc2nc(-c3ccccc3)cc(-c3ccc(Cl)cc3)c12`?
IC50 (Genome polyprotein): 70.8 µM (active); EC50 [1]: > 195 µM (not active)

With `Cc1ccc(CNc2ccc(N3CCOCC3)cc2)cc1` as the compound, how does the IC50 (Large T antigen) read?
Its IC50 is 5.62 µM (active).

Which AC50 [2] does the source give for `CC1(C)Nc2ccccc2N(CC(=O)N2CCCCC2)C1=O` here?
The AC50 was 1.96 µM (active).

Which AC50 [2] does the source give for `Cc1cc(C)cc(-n2ncc3c2CCCC3NC(=O)c2cc(C)n(C)n2)c1` (stereo not drawn) here?
Its AC50 is 4.51 µM (active).

Which AC50 [2] does the source give for `COc1ccc(CC(=O)Nc2ccccc2N2CCCC2)cc1OC` here?
The AC50 was 12.6 µM (active).

With `Cc1nc2ccc(S(=O)(=O)NCC(=O)N(C)Cc3ccccc3)cc2s1` as the compound, how does the AC50 [2] read?
The AC50 was 1.05 µM (active).

For `Oc1ccccc1/C=N/NC(=S)NC1CC2CC1C1C=CCC21` (stereo not drawn), which CC50 [3] is on record?
The CC50 was 13.9 µM (active).

For `Cc1c(NC(=O)COC(=O)COc2ccc(Nc3ccccc3)cc2)c(=O)n(-c2ccccc2)n1C`, which IC50 (Large T antigen) is on record?
The IC50 was 35.3 µM (active).

With `COc1ccccc1N=C(S)N(Cc1ccco1)Cc1cc2ccc(C)c(C)c2nc1O` as the compound, how does the EC50 [4] read?
Its EC50 is 0.685 µM (active).

And the EC50 (BJ [5])?
The EC50 was 20.2 µM (inconclusive).

And the EC50 (BJ [6])?
The EC50 was 0.525 µM (active).

And the EC50 (BJ [7])?
Its EC50 is 0.717 µM (inconclusive).

For `CC1CCCC/C1=N\NC(=S)NCCc1ccccc1` (stereo not drawn), which CC50 [3] is on record?
The CC50 was > 40 µM (active).

For `COc1ccc(CC(=O)N2CCN(c3ccc(C4=NNC(=O)CC4C)cc3)CC2)cc1` (stereo not drawn), which AC50 [2] is on record?
The AC50 was 20.8 µM (active).

What about the EC50 [8] of the same compound?
The EC50 was > 112 µM (not active).

What about the AC50 (Cytochrome P450 2C9) of the same compound?
The AC50 was 8.91 µM (inconclusive).

And the EC50 [9]?
The EC50 was < 0.088 µM (active).

For `Cc1cc([N+](=O)[O-])nn1CCCC(=O)Nc1cc(Oc2ccccc2)cc([N+](=O)[O-])c1`, which IC50 [10] is on record?
The IC50 was 5.32 µM (not active).

For `O=C(O)CN1C(=O)/C(=C\c2ccccc2OCc2ccc(Cl)cc2)SC1=S`, which IC50 (Genome polyprotein) is on record?
Its IC50 is 43.3 µM (active).

For `CC(C)c1ccc(NC(=O)Cc2c(C(=O)O)n(C)c3ccccc23)cc1`, which AC50 [2] is on record?
The AC50 was 6.73 µM (active).

Which EC50 [11] does the source give for `CCOc1ccc(-c2cnc(NCc3cccc4ccccc34)n2CCOC)cc1` here?
Its EC50 is 0.979 µM (active).

What about the CC50 [3] of the same compound?
The CC50 was 12.2 µM (active).

And the EC50 [12]?
The EC50 was > 60 µM (not active).

And the EC50 [1]?
Its EC50 is > 195 µM (not active).

Which EC50 [4] does the source give for `COc1cc(OC)cc(C(=O)c2c(C)c(C#N)c3ccccn23)c1` here?
The EC50 was 1.49 µM (active).

And the EC50 (BJ [5])?
The EC50 was 0.769 µM (active).

What about the EC50 [13] of the same compound?
Its EC50 is > 120 µM (not active).

And the EC50 (BJ [6])?
The EC50 was 1.46 µM (inconclusive).

What about the EC50 [14] of the same compound?
Its EC50 is 2.6 µM (active).

And the EC50 [15]?
Its EC50 is 15 µM (active).

What about the EC50 (BJ [7]) of the same compound?
The EC50 was 2.54 µM (active).

For `CCCN(C#N)c1nc(NCC)nc(NC(C)C)n1`, which IC50 [10] is on record?
Its IC50 is > 50 µM (not active).
